Experimental findings from patent US9562035B2, “Benzamide derivative useful as FASN inhibitors for the treatment of cancer” (Janssen Pharmaceutica NV, priority 2013, dated 2017) are described below.

In test [1] the target is T1, FASN Keto-reductase Domain (Homo sapiens, UniProt P49327).
T1 construct: 10 μL hFASN enzyme (full length, 300 ng, purified in house) and 360 μM NADPH; made in house
The experiment in a line: Fatty Acid Synthase Keto-Reductase Domain (FASN KR) Inhibition. The test is classed as biochemical. The following applies: mean where tested more than once; read-out: FASN K-R Domain pIC50 (converted). The method, boiled down:
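Keto-reductase activity followed as NADPH consumption (A340 drop between 0 and 20 min, room temperature) using in-house full-length hFASN, 360 μM NADPH and ethyl acetoacetate substrate (180 mM stock), pH 7.5 phosphate buffer.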

Test [2] deals with PC-3M-Luc-C6 prostate cells. Description: In Vitro PC-3M-Luc-C6 Prostate Cell Proliferation Assay in Lipid Reduced Medium. It counts as cell-based. The following applies: read-out: PC-3M-Luc-C6 Cells pIC50 (μM) (converted), lipid reduced serum, 96 h. The procedure:
PC-3M-Luc-C6 prostate cells were obtained from Xenogen Corporation. Cells were maintained in MEM supplemented with 10% Fetal Calf Serum (FCS, Hyclone), 2 mM glutamine, 1 mM sodium pyruvate, 1% BME vitamins (available from for example, Sigma Aldrich), 0.1 mM non Essential Amino Acid and 50 μg/ml Gentamicin. The cells were passaged twice a week.
1000 PC-3M-Luc-C6 prostate cells (Xenogen) were seeded in a 384-well black with clear bottom plate (costar 3712BC) in 40 μl MEM, 10% LRS (Hyclo ne), 50 μg/ml Gentamicin, 2 mM Glutamine, 1 mM Sodium pyruvaat, 1% BME vitamins and 0.1 mM non Essential Amino Acid and incubated at 37° C., 5% CO2. The next day 10 μl test compound/DMSO diluted in medium was added (3E-5M, 1E-5M, 3E-6M, 1E-6M, 3E-7M, 1E-7M, 3E-8M, 1E-8M final concentration). Compounds were tested in duplicate. After 96 h incubation at 37° C., 5% CO2 25 μl ATP-glow mix was added. The plate was incubated for 30 min at 37° C. and luminescence was measured with the Envision.
(§1) pIC50 values were calculated as follows. Raw data generated by the instruments were normalized to % Controlmin values, which were calculated as: % Controlmin=100*(x−mLC)/(mHC−mLC),
(§2) where mLC and mHC are the means of the low control wells and high control wells on the plate, after manual exclusion of outliers. The relation between the % Controlmin values and concentration was fitted to a 4-parameter logistic curve using a non-linear least squares regression method to determine the pIC50 value. Outlying data points were excluded manually to get a correct fit. The pIC50 corresponds to −log 10(IC50), if the IC50 is expressed in molar units (http://www.ncbi.nlm.nih.gov/books/NBK91994). The IC50 parameter was always determined by non-linear regression, but one or more of the other parameters may have been held fixed on a relevant input value, such as 0 for the bottom values.
(§3) For dose response curves with FASN inhibitors in LNCaP_Vancouver or PC-3M-Luc_C6 cells the curves bottom out around 30 to 40% of the control value. A standard fit PL2, forcing the lower bound to this level was used.
(§4) Representative compounds of the present invention were tested according to the procedure as described in Biological Example 4a and 4b above, with results as listed in Table BIO-4, below.

In test [3] the test system is A2780 ovarian cells. The experiment in a line: A2780 Ovarian Cell Proliferation Assay in Lipid Reduced Medium, without Palmitate. It counts as cell-based. As to conditions: Homo sapiens. The method, boiled down: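 A2780 cells were seeded in 10% FCS medium and switched next day to 10% lipid-reduced serum without palmitate. Compounds at 0.01–30 μM were added with 0.2% DMSO, 0.2% fatty-acid-free BSA and 0.25% ethanol final. After 96 h, MTT absorbance at 544 nm was normalized to plate controls, and IC50/pIC50 came from a 4-parameter logistic fit.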

For test [4], the system named is LNCaP_Vancouver prostate cells. The experiment in a line: In Vitro LNCaP Vancouver Prostate Cell Proliferation Assay in Lipid Reduced Medium. The test is classed as cell-based. The following applies: lipid reduced serum, 96 h, read-out: Vancouver Cells pIC50 (converted). The procedure:
LNCaP_Vancouver prostate cells were obtained from the Vancouver Prostate Cancer Centre. Cells were maintained in RPMI-1640, 10% Fetal Calf Serum (FCS, Hyclone), 2 mM glutamine and 50 μg/ml Gentamicin.
For the proliferation experiment 1500 LNCaP_Vancouver cells per well were seeded in a 384-well black with clear bottom plate (costar 3712BC) in 40 μl RPMI-1640, 10% Lipid reduced serum (LRS, Hyclone), 50 μg/ml Gentamicin and 2 mM Glutamine and incubated at 37° C., 5% CO2. The next day 10 μl of test compound/DMSO diluted in medium was added (3E-5M, 1E-5M, 3E-6M, 1E-6M, 3E-7M, 1E-7M, 3E-8M, 1E-8M final concentration). Compounds were tested in duplicate. After 96 h incubation at 37° C., 5% CO2 25 μl ATP-glow mix was added. The plate was incubated for 30 min at 37° C. and luminescence was measured with the Envision.
as §1, §2, §3, §4

Setting [5] is: A2780, lipid reduced medium, without palmitate, 96 h, MTT, read-out: Proliferation A2780 w/o Palmitate pIC50 (converted).

Like-named read-outs stand apart in the source and are kept apart here.

T1 sequence (P49327 whole entry, the tested form may be a part): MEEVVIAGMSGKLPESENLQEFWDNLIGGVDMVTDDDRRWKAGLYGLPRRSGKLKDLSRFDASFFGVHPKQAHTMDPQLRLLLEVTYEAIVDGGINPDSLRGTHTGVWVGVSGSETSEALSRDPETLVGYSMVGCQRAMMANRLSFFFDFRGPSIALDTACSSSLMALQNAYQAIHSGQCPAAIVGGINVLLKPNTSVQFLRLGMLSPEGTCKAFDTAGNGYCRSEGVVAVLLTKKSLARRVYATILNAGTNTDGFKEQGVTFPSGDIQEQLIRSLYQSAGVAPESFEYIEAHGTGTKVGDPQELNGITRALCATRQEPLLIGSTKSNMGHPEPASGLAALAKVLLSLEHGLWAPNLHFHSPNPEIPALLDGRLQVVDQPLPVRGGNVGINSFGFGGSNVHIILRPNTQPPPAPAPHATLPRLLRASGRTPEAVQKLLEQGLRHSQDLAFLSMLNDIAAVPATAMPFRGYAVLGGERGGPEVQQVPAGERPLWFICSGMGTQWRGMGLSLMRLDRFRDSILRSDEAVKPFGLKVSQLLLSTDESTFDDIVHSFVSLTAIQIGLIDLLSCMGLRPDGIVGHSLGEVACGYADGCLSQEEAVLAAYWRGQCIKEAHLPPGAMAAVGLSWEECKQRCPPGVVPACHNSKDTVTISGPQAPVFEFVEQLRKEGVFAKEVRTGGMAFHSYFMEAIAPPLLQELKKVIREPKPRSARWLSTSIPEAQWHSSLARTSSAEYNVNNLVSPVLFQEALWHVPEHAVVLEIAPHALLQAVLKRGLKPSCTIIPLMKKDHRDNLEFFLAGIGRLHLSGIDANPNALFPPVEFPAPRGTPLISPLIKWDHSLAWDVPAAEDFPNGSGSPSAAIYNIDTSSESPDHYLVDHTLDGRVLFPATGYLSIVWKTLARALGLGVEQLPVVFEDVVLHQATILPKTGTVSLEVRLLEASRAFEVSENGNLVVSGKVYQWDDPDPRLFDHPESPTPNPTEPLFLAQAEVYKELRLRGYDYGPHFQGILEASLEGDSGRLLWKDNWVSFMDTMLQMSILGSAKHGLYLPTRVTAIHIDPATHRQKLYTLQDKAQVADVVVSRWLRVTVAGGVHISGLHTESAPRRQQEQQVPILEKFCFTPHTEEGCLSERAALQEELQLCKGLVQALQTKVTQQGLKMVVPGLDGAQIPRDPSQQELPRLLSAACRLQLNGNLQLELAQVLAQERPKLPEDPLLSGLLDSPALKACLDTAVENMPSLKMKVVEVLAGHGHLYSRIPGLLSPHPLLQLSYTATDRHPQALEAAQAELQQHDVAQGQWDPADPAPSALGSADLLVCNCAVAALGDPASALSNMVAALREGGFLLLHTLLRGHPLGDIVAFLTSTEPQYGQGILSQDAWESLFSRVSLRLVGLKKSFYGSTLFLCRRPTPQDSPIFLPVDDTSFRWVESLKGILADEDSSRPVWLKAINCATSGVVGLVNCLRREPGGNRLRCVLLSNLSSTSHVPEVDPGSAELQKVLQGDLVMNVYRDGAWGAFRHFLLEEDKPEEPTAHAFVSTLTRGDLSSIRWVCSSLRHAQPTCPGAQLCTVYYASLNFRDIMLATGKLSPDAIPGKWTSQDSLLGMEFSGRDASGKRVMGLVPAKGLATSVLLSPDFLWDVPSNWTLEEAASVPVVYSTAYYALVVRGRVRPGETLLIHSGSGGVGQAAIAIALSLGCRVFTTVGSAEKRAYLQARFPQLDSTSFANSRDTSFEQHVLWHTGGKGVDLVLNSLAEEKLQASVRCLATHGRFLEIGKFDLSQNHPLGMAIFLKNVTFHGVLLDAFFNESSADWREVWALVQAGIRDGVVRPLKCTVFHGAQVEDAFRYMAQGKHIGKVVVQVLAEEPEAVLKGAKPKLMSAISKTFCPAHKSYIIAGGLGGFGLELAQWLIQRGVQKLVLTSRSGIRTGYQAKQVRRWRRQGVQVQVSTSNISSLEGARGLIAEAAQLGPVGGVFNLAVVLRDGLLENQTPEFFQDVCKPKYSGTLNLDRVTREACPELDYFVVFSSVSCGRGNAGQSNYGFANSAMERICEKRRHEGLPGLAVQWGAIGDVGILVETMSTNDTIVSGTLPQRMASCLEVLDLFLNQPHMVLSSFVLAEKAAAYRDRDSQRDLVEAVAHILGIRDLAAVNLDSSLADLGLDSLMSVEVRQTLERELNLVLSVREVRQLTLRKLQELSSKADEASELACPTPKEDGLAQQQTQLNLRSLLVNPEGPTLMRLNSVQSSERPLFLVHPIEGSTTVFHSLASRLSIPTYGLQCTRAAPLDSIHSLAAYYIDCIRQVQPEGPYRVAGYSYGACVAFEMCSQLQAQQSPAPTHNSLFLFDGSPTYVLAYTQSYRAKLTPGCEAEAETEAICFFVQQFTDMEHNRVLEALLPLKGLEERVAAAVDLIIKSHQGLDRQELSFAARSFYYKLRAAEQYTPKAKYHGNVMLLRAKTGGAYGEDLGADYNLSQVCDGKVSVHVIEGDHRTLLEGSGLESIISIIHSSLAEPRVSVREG

As for `CC(C)N(C)c1ccc(C(=O)N2CCC(c3ccc(-c4cnn(C)c4)cc3)CC2)cc1NC(=O)c1ccc(Cl)nc1` [Compound 274, 6-chloro-N-(2-(isopropyl(methyl)amino)-5-(4-(4-(1-methyl-1H-pyrazol-4-yl)phenyl)piperidine-1-carbonyl)phenyl)nicotinamide], the IC50 in test [1] was approximately 2.19 µM; in test [2] it was 0.776 µM; in test [3] (setting [5]), approximately 0.302 µM; in test [4] it was 1.95 µM.

`CN(C)c1ccc(C(=O)N2CCC(c3ccc(-c4cnn(C)c4)cc3)CC2)cc1NC(=O)c1ccc(Cl)nc1` [Compound 275, 6-chloro-N-(2-(dimethylamino)-5-(4-(4-(1-methyl-1H-pyrazol-4-yl)phenyl)piperidine-1-carbonyl)phenyl)nicotinamide]: the IC50 was 0.126 µM in test [1], 0.12 µM in test [2], 0.1 µM in test [3] (setting [5]) and 0.692 µM in test [4].

For the compound `CC(C)Nc1ccc(C(=O)Nc2cc(C(=O)N3CCC(c4ccc(-c5cnn(C)c5)cc4)CC3)ccc2N(C)C(C)C)cn1` [Compound 276, N-(2-(isopropyl(methyl)amino)-5-(4-(4-(1-methyl-1H-pyrazol-4-yl)phenyl)piperidine-1-carbonyl)phenyl)-6-(isopropylamino)nicotinamide], the IC50 was 0.479 µM in test [1], 0.49 µM in test [2], approximately 0.257 µM in test [3] (setting [5]) and 1.38 µM in test [4].

Take `COCCN(C)c1ccc(C(=O)N2CCC(c3ccc(-c4cnn(C)c4)cc3)CC2)cc1NC(=O)C1CC1` [Compound 278, N-(2-((2-methoxyethyl)(methyl)amino)-5-(4-(4-(1-methyl-1H-pyrazol-4-yl)phenyl)piperidine-1-carbonyl)phenyl)cyclopropanecarboxamide]: the IC50 in test [1] was 1.1 µM; in test [2], 2.14 µM; in test [3] (setting [5]), 1.78 µM; in test [4], 6.17 µM.

Take `CC(C)Nc1ccc(C(=O)Nc2cc(C(=O)N3CCC(c4ccc(-c5cnn(C)c5)cc4)CC3)ccc2N(C)C)cn1` [Compound 280, N-(2-(dimethylamino)-5-(4-(4-(1-methyl-1H-pyrazol-4-yl)phenyl)piperidine-1-carbonyl)phenyl)-6-(isopropylamino)nicotinamide]: the IC50 in test [1] is 0.148 µM; in test [2] it was 0.0724 µM; in test [3] (setting [5]), 0.0776 µM; in test [4], 0.372 µM.

Take `COCCN(C)c1ccc(C(=O)N2CCC(c3ccc(-c4cnn(C)c4)cc3)CC2)cc1NC(=O)c1ccc(NC(C)C)nc1` [Compound 281, 6-(isopropylamino)-N-(2((2-methoxyethyl)(methyl)amino)-5-(4-(4-(1-methyl-1H-pyrazol-4-yl)phenyl)piperidine-1-carbonyl)phenyl)nicotinamide]: the IC50 in test [1] is 0.933 µM; in test [2], approximately 0.776 µM; in test [3] (setting [5]), 0.417 µM; in test [4], approximately 1.35 µM.

On to `COCCNc1ccc(C(=O)N2CCC(c3ccc(-c4cnn(C)c4)cc3)CC2)cc1NC(=O)c1ccc(NC(C)C)nc1` [Compound 282, 6-(isopropylamino)-N-(2-((2-methoxyethyl)amino)-5-(4-(4-(1-methyl-1H-Pyrazol-4-yl)phenyl)piperidine-1-carbonyl)phenyl)nicotinamide], for which the IC50 is 0.457 µM in test [1], 0.17 µM in test [2], 0.209 µM in test [3] (setting [5]) and 1.02 µM in test [4].

Regarding `CC(C)Nc1ccc(C(=O)Nc2cc(C(=O)N3CCC(c4ccc(-c5cnn(C)c5)cc4)CC3)ccc2NC2CC2)cn1` [Compound 283, N-(2-(cyclopropylamino)-5-(4-(4-(1-methyl-1H-pyrazol-4-yl)phenyl)piperidine-1-carbonyl)phenyl)-6-(isopropylamino)nicotinamide], the IC50 was 0.631 µM in test [1], 0.245 µM in test [2], 0.363 µM in test [3] (setting [5]) and 1.05 µM in test [4].

As to `CC(C)Nc1ccc(C(=O)Nc2cc(C(=O)N3CCC(c4ccc(-c5cnn(C)c5)cc4)CC3)ccc2NC(C)C)cn1` [Compound 284, 6-(isopropylamino)-N-(2-(isopropylamino)-5-(4-(4-(1-methyl-1H-pyrazol-4-yl)phenyl)piperidine-1-carbonyl)phenyl)nicotinamide], the IC50 was 0.407 µM in test [1], 0.195 µM in test [2], approximately 0.316 µM in test [3] (setting [5]) and 1.02 µM in test [4].

As for `CC(C)Nc1ccc(C(=O)Nc2cc(C(=O)N3CCC(c4ccc(-c5cnn(C)c5)cc4)CC3)ccc2N)cn1` [Compound 285, N-(2-amino-5-(4-(4-(1-methyl-1H-pyrazol-4-yl)phenyl)piperidine-1-carbonyl)phenyl)-6-(isopropylamino)nicotinamide], the IC50 is 0.214 µM in test [1], 0.126 µM in test [2], 0.0589 µM in test [3] (setting [5]) and approximately 0.537 µM in test [4].

Turning to `COCCNc1ccc(C(=O)N2CCC(c3ccc(-c4cnn(C)c4)cc3)CC2)cc1NC(=O)C1CC1` [Compound 286, N-(2-((2-methoxyethyl)amino)-5-(4-(4-(1-methyl-1H-pyrazol-4-yl)phenyl)piperidine-1-carbonyl)phenyl)cyclopropanecarboxamide], the IC50 was 0.851 µM in test [1], 1.82 µM in test [2], 0.427 µM in test [3] (setting [5]) and 4.07 µM in test [4].

Turning to `CC(C)Nc1ccc(C(=O)Nc2cc(C(=O)N3CCC(c4ccc(-c5cnn(C)c5)cc4)CC3)ccc2N(C)C2CC2)cn1` [Compound 287, N-(2-(cyclopropyl(methyl)amino)-5-(4-(4-(1-methyl-1H-pyrazol-4-yl)phenyl)piperidine-1-carbonyl)phenyl)-6-(isopropylamino)nicotinamide], the IC50 in test [1] is 0.204 µM; in test [2], 0.186 µM; in test [3] (setting [5]), 0.676 µM; in test [4], 0.977 µM.

Take `CN(c1ccc(C(=O)N2CCC(c3ccc(-c4cnn(C)c4)cc3)CC2)cc1NC(=O)C1CC1)C1CC1` [Compound 288, N-(2-(cyclopropyl(methyl)amino)-5-(4-(4-(1-methyl-1H-pyrazol-4-yl)phenyl)piperidine-1-carbonyl)phenyl)cyclopropanecarboxamide]: the IC50 in test [1] was 2.51 µM; in test [2], 3.09 µM; in test [3] (setting [5]) it was 5.13 µM; in test [4], approximately 9.77 µM.

For `Cc1ccc(C(=O)N2CCC(c3ccc(-c4cnn(C)c4)cc3)CC2)cc1NC(=O)c1ccc(NC(C)C)nc1` [Compound #32, 6-(isopropylamino)-N-(2-methyl-5-(4-(4-(1-methyl-1H-pyrazol-4-yl)phenyl)piperidine-1-carbonyl)phenyl)nicotinamide], the IC50 was 0.0372 µM in test [1]; 0.01 µM in test [2]; 0.0135 µM in test [3] (A2780, 96 h, read-out: Proliferation A2780 w/o Palmitate pIC50 (μM) (converted)); 0.0933 µM in test [4].

Consider `Cc1ccc(C(=O)N2CC(c3ccc(-c4cnn(C)c4)cc3)C2)cc1NC(=O)c1ccc(N2CCOCC2)nc1` [Compound #66, N-(2-methyl-5-(3-(4-(1-methyl-1H-pyrazol-4-yl)phenyl)azetidine-1-carbonyl)phenyl)-6-morpholinonicotinamide], for which the IC50 was 0.0316 µM in test [1], approximately 0.00813 µM in test [2], approximately 0.0229 µM in test [3] (setting [5]) and 0.0295 µM in test [4].
